Measurements from patent US9309285B2, “Macrocyclic broad spectrum antibiotics” (priority 2012, dated 2016).
Positions of bridges follow the written chain, without caps; N, C: chain ends. Non-standard residues stand in square brackets, D forms with d. Residues, ends and D or L forms follow the SMILES beside them. *: point of attachment. boroAla((+)-pinanediol) = C[C@H](N*)B1O[C@@H]2C[C@@H]3C[C@@H](C3(C)C)[C@]2(C)O1; Biphenylcarbonyl(4'-Bu) = CCCCc1ccc(-c2ccc(C(=O)*)cc2)cc1; Aad = N[C@@H](CCCC(=O)O)C(=O)O; Orn = NCCC[C@H](N)C(=O)O

What was measured:
[1] = test system: Methicillin Resistant Staphylococcus aureus strain USA 300 (NRS384); assay: MIC by broth micro-dilution (CLSI), S. aureus; format: cell-based; conditions: Staphylococcus aureus, MRSA / NRS 384 / USA300; MRSA USA 300 (NRS384); cation adjusted Mueller Hinton Broth + 0.002% Tween-80; 35° C., 22 hours; read-out: MIC (μg/mL) S. aureus
Method: In vitro antimicrobial activity of each compound was determined by measuring minimal inhibitor concentrations (MICs) using the broth micro-dilution technique as approved by the Clinical and Laboratory Standards Institute (CLSI) (Methods for Dilution Antimicrobial Susceptibility Tests for Bacteria that Grow Aerobically; Approved Standard—Eighth Edition. CLSI document M07-A8. Wayne, Pa.: Clinical and Laboratroy Standards; 2009). Antibacterial activity was measure against two strains of bacteria: a Methicillin Resistant Staphylococcus aureus strain USA 300 (NRS384) and a strain of Escherichia coli MC4100 harboring the IMP4213, which results in increased outer-membrane permeability (B Martin and Silhavy T. Imp/OstA is required for cell envelope biogenesis in Escherichia coli. (2002) Molecular Microbiology, 45(5), 1289-1302). Cells were inoculated onto plates of Trypyticase Soy Agar or Luria Agar respectively and grown at 35° C. for 20 hours. Inocula suspensions were prepared by scraping cells into 1 ml of testing media (cation adjusted Mueller Hinton Broth supplemented with 0.002% v/v Tween-80) and diluting to a final OD600 nm of 0.01.
Test compounds were prepared in DMSO at a concentration of 10 mg/ml. These compound stocks were diluted into testing media at a concentration of 64 μg/ml and serial 2-fold dilutions were made in the same media, in 96-well U bottom microtiter dishes, for a total of 10 compound concentrations. Inocula suspensions were added to the 2-fold serial dilutions of test compounds to a final density of OD OD600 nm of 0.0005 and incubated at 35° C. for 22 hours.

E. coli SPase = target: T1, E. coli SPase (Escherichia coli, UniProt P00803); assay: SPase enzyme inhibition assay, fluorogenic peptide substrate, E. coli; format: biochemical; conditions: 3 nM E. coli SPase, 20 μM substrate, 10 minutes pre-incubation, room temperature; read-out: IC 50 (nM) E. coli
T1 construct: Full length His-tagged E. coli and S. aureus SPase proteins were expressed in E. coli BL21; His tag; made in house; host or cells: E. coli BL21 (DE3)
T1 sequence (P00803 whole entry): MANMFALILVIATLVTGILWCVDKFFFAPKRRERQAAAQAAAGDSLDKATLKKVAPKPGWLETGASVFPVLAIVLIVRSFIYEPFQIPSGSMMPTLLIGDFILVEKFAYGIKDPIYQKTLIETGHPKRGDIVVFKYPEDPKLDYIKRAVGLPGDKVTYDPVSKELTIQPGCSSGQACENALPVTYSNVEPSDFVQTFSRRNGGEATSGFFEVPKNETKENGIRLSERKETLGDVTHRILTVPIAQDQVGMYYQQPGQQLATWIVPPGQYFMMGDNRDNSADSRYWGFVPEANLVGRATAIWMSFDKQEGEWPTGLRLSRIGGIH
Method: (§1) Briefly, for expression of E. coli SPase, saturated overnight cultures grown in 20 ml of Luria-Bertani medium supplemented with ampicillin were subcultures into 1.5 L of Luria-Bertani, and shaken at 37° C. until an optical density at 600 nm of 0.4-0.5 was achieved. […] S. aureus SPase was expressed and purified similarly, with the following exceptions. […] Resin bound protein was washed in a similar buffer containing 1% Elugent in place of Triton X-100 prior to protein elution in wash buffer supplemented with 300 mM imidazole. […] All protein concentrations were determined by BCA assay.
(§2) Enzyme master solution was prepared by diluting Escherichia coli or Staphylococcus aureus SPase protein into reaction buffer to a final concentration of 3 nM or 10 nM respectively. Reaction buffer consisted of 20 mM NaKHPO4 pH 7.4, 100 mM NaCl, and 1% v/v Elugent™ detergent. Reactions were initiated by the addition of substrate to a final concentration of 20 μM. Reaction progress was monitored by measuring the increase in fluorescence signal (excitation at 314 nm, emission at 416 nm) using a SpectraMax M2 fluorescence microplate reader. […] Three-folder serial dilutions of test compounds, starting at 10 μM, were prepared in enzyme mix solution and incubated at room temperature for 10 minutes. Following this incubation, fluorogenic substrate was added to a final concentration of 20 μM and the increase in fluorescence, corresponding to substrate cleavage, was monitored continuously at room temperature for 1 hour. Initial reaction rates were calculated based on the rate of increase in fluorescence during the reaction. Reaction rates were plotted as a function of compound concentration, and IC50 values were determined nonlinear regression analysis (SoftMaxPro 5.4, Molecular Devices™) of the sigmoidal dose-response curve.

S. aureus SPase = target: T2, S. aureus SPase (Staphylococcus aureus, UniProt P0A070); assay: SPase enzyme inhibition assay, fluorogenic peptide substrate, S. aureus; format: biochemical
T2 construct: Full length His-tagged E. coli and S. aureus SPase proteins were expressed in E. coli BL21; His tag; made in house; host or cells: E. coli BL21 (DE3)
T2 sequence (P0A070 1-191): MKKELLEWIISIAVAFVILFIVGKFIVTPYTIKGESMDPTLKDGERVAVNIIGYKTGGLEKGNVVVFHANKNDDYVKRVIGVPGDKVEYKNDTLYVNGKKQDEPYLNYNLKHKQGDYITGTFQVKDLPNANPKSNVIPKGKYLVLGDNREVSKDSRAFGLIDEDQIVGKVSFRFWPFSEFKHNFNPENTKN
Method: as §1, §2

| SMILES | MIC [1] | IC50 (E. coli SPase) | IC50 (S. aureus SPase) |
| --- | --- | --- | --- |
| CCCCc1ccc(-c2ccc(C(=O)N[C@@H](CCCCN)C(=O)N(C)[C@@H]3C(=O)N[C@@H](C)C(=O)N[C@H](C(=O)N[C@@H](C)B4O[C@@H]5C[C@@H]6C[C@@H](C6(C)C)[C@]5(C)O4)Cc4ccc(O)c(c4)-c4cc3ccc4O)cc2)cc1 [Compound 121] | 0.71 µg/mL | 29 nM | 110 nM |
| CCCCc1ccc(-c2ccc(C(=O)N[C@@H](CCCCN)C(=O)N[C@H]3CCC(=O)NCCCC[C@@H](C(=O)N[C@@H](C)B4O[C@@H]5C[C@@H]6C[C@@H](C6(C)C)[C@]5(C)O4)NC(=O)[C@H](C)NC3=O)cc2)cc1 [Compound 201] ({Biphenylcarbonyl(4'-Bu)}-KEAK-{boroAla((+)-pinanediol)}; lactam 2-4) | – | 15 nM | 150 nM |
| CCCCCCCCCCCCCC(=O)N[C@@H](CCCCN)C(=O)N(C)[C@@H]1C(=O)N[C@@H](C)C(=O)N[C@H](C(=O)NCB(O)O)Cc2ccc(O)c(c2)-c2cc1ccc2O [Compound 118] | – | 7.6 nM | 31 nM |
| CCCCc1ccc(-c2ccc(C(=O)N(C)[C@@H]3C(=O)N[C@@H](C)C(=O)N[C@H](C(=O)O)Cc4ccc(O)c(c4)-c4cc3ccc4O)cc2)cc1 [Compound 116] | > 64 µg/mL | > 10000 nM | > 10000 nM |
| CCCCc1ccc(-c2ccc(C(=O)NCC(C)C(=O)N[C@@H](CCCN)C(=O)N(C)[C@@H]3C(=O)N[C@@H](C)C(=O)N[C@H](C(=O)O)Cc4ccc(O)c(c4)-c4cc3ccc4O)cc2)cc1 (some centres unmarked) [Compound 113] | 4 µg/mL | 3.6 nM | 69 nM |
| C[C@@H]1NC(=O)[C@@H](N(C)C(=O)[C@H](CCCCN)NC(=O)c2ccc(-c3ccc(Cl)cc3)cc2)c2ccc(O)c(c2)-c2cc(ccc2O)C[C@@H](C(=O)N[C@@H](C)C=O)NC1=O [Compound 134] | 10 µg/mL | 0.8 nM | 8.2 nM |
| CCCCc1ccc(-c2ccc(C(=O)N[C@@H](CCCCN)C(=O)N[C@H]3COCCCCOCC[C@@H](C(=O)N[C@@H](C)B4O[C@@H]5C[C@@H]6C[C@@H](C6(C)C)[C@]5(C)O4)NC(=O)[C@H](C)NC3=O)cc2)cc1 [Compound 207] | 1.3 µg/mL | 21 nM | 210 nM |
| CNC(=O)[C@@H]1CCCN1C(=O)[C@H](C)NC(=O)[C@@H]1Cc2ccc(O)c(c2)-c2cc(ccc2O)[C@H](N(C)C(=O)[C@H](CCCCN)NC(=O)c2ccc(-c3ccc(Cl)cc3)cc2)C(=O)N[C@@H](C)C(=O)N1 [Compound 136] | – | 44 nM | 47 nM |
| CCCCCCCCCCCCCC(=O)N[C@@H](CCCCN)C(=O)N(C)[C@@H]1C(=O)N[C@@H](C)C(=O)N[C@H](C(=O)N[C@@H](C)B(O)O)Cc2ccc(O)c(c2)-c2cc1ccc2O [Compound 119] | – | 8.6 nM | 33 nM |
| CCCCc1ccc(-c2ccc(C(=O)N[C@@H](CCCCN)C(=O)N(C)[C@@H]3C(=O)N[C@@H](C)C(=O)N[C@H](C(=O)N[C@@H](C)B4O[C@@H]5C[C@@H]6C[C@@H](C6(C)C)[C@]5(C)O4)CCCCCc4cc3ccc4OC)cc2)cc1 [Compound 208] | – | 680 nM | > 10000 nM |
| CCCCCCCCCCCCCC(=O)N[C@@H](CCCCN)C(=O)N(C)[C@@H]1C(=O)N[C@@H](C)C(=O)N[C@H](C(=O)O)Cc2ccc(O)c(c2)-c2cc1ccc2O [Compound 111] | – | 2.2 nM | 160 nM |
| CCCCCCCC(=O)NCCC(=O)N[C@@H](CCCCN)C(=O)N(C)[C@@H]1C(=O)N[C@@H](C)C(=O)N[C@H](C(=O)N[C@@H](C)C(N)=O)Cc2ccc(O)c(c2)-c2cc1ccc2O [Compound 129] | – | 370 nM | 140 nM |
| CCCCCCCC(=O)NCCC(=O)N[C@@H](CCCCN)C(=O)N(C)[C@@H]1C(=O)N[C@@H](C)C(=O)N[C@H](C(N)=O)Cc2ccc(O)c(c2)-c2cc1ccc2O [Compound 130] | – | 160 nM | 580 nM |
| CCCCc1ccc(-c2ccc(C(=O)N[C@@H](CCCCN)C(=O)N(C)[C@@H]3C(=O)N[C@@H](C)C(=O)N[C@H](C(=O)O)Cc4ccc(O)c(c4)-c4cc3ccc4O)cc2)cc1 [Compound 110] | – | 1.4 nM | 350 nM |
| C[C@@H]1NC(=O)[C@@H](N(C)C(=O)[C@H](CCCCN)NC(=O)c2ccc(-c3ccc(Cl)cc3)cc2)c2ccc(O)c(c2)-c2cc(ccc2O)C[C@@H](C(=O)N[C@@H](C)C(=O)N(C)C)NC1=O [Compound 137] | – | 350 nM | 3100 nM |
| CCCCc1ccc(-c2ccc(C(=O)NC[C@@H](C)C(=O)N[C@@H](CCCCN)C(=O)N(C)[C@@H]3C(=O)N[C@@H](C)C(=O)N[C@H](C(=O)N[C@@H](C)B4OC5C[C@@H]6C[C@@H](C6(C)C)[C@]5(C)O4)Cc4ccc(O)c(c4)-c4cc3ccc4O)cc2)cc1 (some centres unmarked) [Compound 120] | – | 18 nM | 220 nM |
| CCCCCCCC(=O)NCCC(=O)N[C@@H](CCCCN)C(=O)N(C)[C@@H]1C(=O)N[C@@H](C)C(=O)N[C@H](C(=O)N[C@@H](C)C(=O)N2CCC[C@H]2C(N)=O)Cc2ccc(O)c(c2)-c2cc1ccc2O [Compound 131] | – | 180 nM | 3.3 nM |
| CCCCc1ccc(-c2ccc(C(=O)N[C@@H](CCCCN)C(=O)N[C@H]3CCCC(=O)NCCCC[C@@H](C(=O)N[C@@H](C)B4O[C@@H]5C[C@@H]6C[C@@H](C6(C)C)[C@]5(C)O4)NC(=O)[C@H](C)NC3=O)cc2)cc1 [Compound 203] ({Biphenylcarbonyl(4'-Bu)}-K[Aad]AK-{boroAla((+)-pinanediol)}; lactam 2-4) | – | 8.9 nM | 81 nM |
| CCCCc1ccc(-c2ccc(C(=O)NC[C@@H](C)C(=O)N[C@@H](CCCCN)C(=O)N(C)[C@@H]3C(=O)N[C@@H](C)C(=O)N[C@H](C(=O)N[C@@H](C)C(=O)N4CCC[C@H]4C(N)=O)Cc4ccc(O)c(c4)-c4cc3ccc4O)cc2)cc1 [Compound 138] | – | 30 nM | 78 nM |
| CCCCc1ccc(-c2ccc(C(=O)N[C@@H](CCCCN)C(=O)N[C@H]3CCC(=O)NCCC[C@@H](C(=O)N[C@@H](C)B4O[C@@H]5C[C@@H]6C[C@@H](C6(C)C)[C@]5(C)O4)NC(=O)[C@H](C)NC3=O)cc2)cc1 [Compound 202] ({Biphenylcarbonyl(4'-Bu)}-KEA[Orn]-{boroAla((+)-pinanediol)}; lactam 2-4) | – | 28 nM | 200 nM |
| C[C@@H]1NC(=O)[C@@H](N(C)C(=O)[C@H](CCCCN)NC(=O)c2ccc(-c3ccc(Cl)cc3)cc2)c2ccc(O)c(c2)-c2cc(ccc2O)C[C@@H](C(=O)O)NC1=O [Compound 127] | – | 1.4 nM | 440 nM |
| C[C@@H]1NC(=O)[C@@H](N(C)C(=O)[C@H](CCN)NC(=O)c2ccc(-c3ccc(Cl)cc3)cc2)c2ccc(O)c(c2)-c2cc(ccc2O)C[C@@H](C(=O)O)NC1=O [Compound 128] | – | 1.5 nM | 3500 nM |
| CCCCCCCC(=O)N[C@@H](CCCCN)C(=O)N(C)[C@@H]1C(=O)N[C@@H](C)C(=O)N[C@H](C(=O)O)Cc2ccc(O)c(c2)-c2cc1ccc2O [Compound 124] | – | 23 nM | 1000 nM |
| CCCCCCCC(=O)NCCC(=O)N[C@@H](CCCCN)C(=O)N(C)[C@@H]1C(=O)N[C@@H](C)C(=O)N[C@H](C(=O)O)Cc2ccc(O)c(c2)-c2cc1ccc2O [Compound 122] | – | 27 nM | 130 nM |
